Some results are limits rather than exact numbers.

Usually LD50 stands for the dose expected to kill half of the subjects tested. A higher LD50 goes with a less toxic substance.

The conditions of series [1]: 10% solution in water. As for the experimental part:
On refroidit à O°C une solution de 11,68 g de lysine base dans 190 ml d'eau. A cette solution limpide, on ajoute par petites portions et sous agitation 10,47 g de nitrofurantoïne. Quelques minutes après la fin de l'addition, la solution est filtrée, congelée et lyophilisée.

A short description of series [2]: Solubility in water. The format is physicochemical. The source says:
La nitrofurantoïne ou N-(5-nitro-2-fur furylidène)-1-aminohydantoïne est un médicament, bien connu, utilisé notamment comme agent antiseptique des voies urinaires. […] Afin de pallier à cet inconvénient, différentes formes cristallines ont été développées avec peu de succès. Des sels de métaux alcalins de nitrofurantoine ont également été réalisés mais ceux-ci, bien que solubles, présentent l'inconvénient d'apporter avec eux, des ions alcalins qui sont souvent contre- indiqués, notamment lors des traitements au long cours chez les sujets soumis à un régime désodé.

Series [3] in a line: in vivo. The settings on record: po, dose létale pour 50% des animaux. The source says:
La toxicité de la nitrofurantoïne est connue pour donner des résultats variables suivant les caractéristiques du produit utilisé, notamment la taille des cristaux.

For series [4] the following is noted: aqueous solution; cited from earlier work.
For series [5] the following is noted: water, 25°C; cited from earlier work.

As for `O=C1CN(N=Cc2ccc([N+](=O)[O-])o2)C(=O)N1` [Exemple 1], the “pH d'une solution à 10% dans l'eau” value in series [1] was 8,9 - 9,5. Also, the solubility in series [2] (20°C, read-out: solubilité dans l'eau à 20°C) was greater than 300 mg/mL. For the same compound, the “solubilité dans l'eau (result in words)” value in series [2] (qualitative) is recorded as “instantanément soluble dans l'eau”.

Regarding `O=C1CN(N=Cc2ccc([N+](=O)[O-])o2)C(=O)N1` [Exemple 2], the LD50 in series [3] (mouse) was 960 mg/kg; in series [3] (mouse, en nitrofurantoïne pure), 530 mg/kg; in series [3] (rat), 1910 mg/kg; in series [3] (rat, en nitrofurantoine pure), 1050 mg/kg.

Regarding `O=C1CN(/N=C/c2ccc([N+](=O)[O-])o2)C(=O)N1` [nitrofurantoïne, N-(5-nitro-2-furfurylidène)-1-aminohydantoïne], the “pKa en solution aqueuse” value in series [4] was ~7,2. Also, in series [5], the “soluble dans l'eau” value is given as 19 mg/100 ml.

Values taken from patent EP0066934A1, “Nitrofurantoin salts, their preparation and their use” ("PHARLYSE", Société Anonyme, priority 1981, dated 1982).
